Laboratory results taken from patent US20250195463A1, “ORGANOMETALLIC COMPLEX, CONTROLLED-RELEASE MULTI-FUNCTIONAL DRUG, PHARMACEUTICAL COMPOSITION, PROCESSES FOR THE PREPARATION THEREOF AND THEIR USE” (FACULDADE DE CIÊNCIAS DA UNIVERSIDADE DE LISBOA, priority 2022, published 2025).

Legend:
[1] = Stability in organic medium (dimethyl sulfoxide) by UV-Vis spectroscopy; assay type: physicochemical; details: for Relative variation of the maximum absorbance of the π→π* transitions: band 289-300 nm (λmax in column head); for Relative variation of the maximum absorbance of the charge transfer bands: band 357-425 nm (λmax in column head)
Procedure, shortened: (§1)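 UV-Vis spectra (270-900 nm) were recorded at intervals from 0 to 24 h, at room temperature in the dark. Solvents were 100% DMSO, or 5% or 10% DMSO in DMEM depending on complex, at 7.0×10^-5 M to 3.0×10^-4 M.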

[2] = Stability in aqueous medium (dimethyl sulfoxide/Dulbecco's Modified Eagle Medium) by UV-Vis spectroscopy; assay type: physicochemical; details: 5% dimethyl sulfoxide/95% Dulbecco's Modified Eagle Medium; for Relative variation of the maximum absorbance of the π→π* transitions: band 292-296 nm (λmax in column head); for Relative variation of the maximum absorbance of the charge transfer bands: band 358-400 nm (λmax in column head)
Procedure, shortened: as §1

[3] = tested on: MDA-MB-231 (FGFR−); assay: MTT cytotoxicity assay; details: MDA-MB-231
Description: By way of example, the in vitro cytotoxicity of the conjugate RuPC1, complex 4 and peptide P2 was determined in four human breast cancer cell lines with different levels of expression of the receptor FGFR, namely MDA-MB-231 (FGFR−), MCF-7 (FGFR−), SK-BR-3 (FGFR+), and MDA-MB-134-VI (FGFR+). The cytotoxicity of RuPC1 was also determined in the stated cell lines at controlled pH 6.8 and 7.4. The cytotoxicity of the complexes 5, 8, 9, and the reference complex (2,2′-bipyridyl)(triphenylphosphane)(f-cyclopentadienyl)ruthenium(II) trifluoromethanesulfonate, [RuCp(PPh3)(bipy)][CF3SO3] (TM34) was only determined in the cell line MDA-MB-231. All the cell lines were from the American Type Culture Collection (ATCC) and were cultured in Dulbecco's Modified Eagle Medium+Glutamax-I (Gibco) supplemented with 10% fetal bovine serum (FBS) and 1% antibiotics, excepting the MDA-MB-134-VI for which it was used the double amount of FBS. The cell cultures were kept in an incubator Heraeus at 37° C. under humidified atmosphere at 5% CO2. The cell viability was evaluated resorting to the MTT ([3-(4,5-dimethylthiazol-2-yl)-2,5-diphenyltetrazolium bromide]) colorimetric assay, which is based on the reduction of the tetrazolium salt to purple formazan by mitochondrial dehydrogenases in metabolically active cells. For the assays, the cells were seeded in 96-well plates (2×10^4 to 3×10^4 cells/200 μL) and allowed to adhere overnight. The compounds were first dissolved in dimethyl sulfoxide to obtain 10 mM stock solutions, further used to prepare the working solutions, at 0.1 to 100 μM, by dilution in the cell culture medium. Alternatively, for the assays at controlled pH 6.8 and 7.4, RuPC1 was first dissolved in a solution of 15% dimethyl sulfoxide/85% phosphate buffer (10 mM in water) to obtain 1.5 mM stock solutions further incubated for 48 hours at both pH values prior to be used to prepare the working solutions, at 0.1 to 50 μM, by dilution in the cell culture medium. In both cases, after continuous exposure of the cells to the compounds for 48 h at 37° C., the medium was removed and the cells were incubated with 200 μL of MTT solution (0.5 mg/mL) for 3 h. Then, the solution was discarded and the purple formazan formed by the viable cells was dissolved in 200 μL of dimethyl sulfoxide. The cell viability (%) was determined relative to the control (cells incubated without compounds) by measuring the absorbance at 570 nm on a PowerWave Xs Bio-Tek Instruments plate spectrophotometer. The respective values of the half maximal inhibitory concentration (IC50) were calculated with the software GraphPad Prism. All the compounds were tested in at least two independent experiments, each comprising six replicates per concentration.

## O=C(Cc1ccccc1)C1=C[CH]([Ru-]2([PH](c3ccccc3)(c3ccccc3)c3ccccc3)[n+]3ccccc3-c3cccc[n+]32)C=C1.O=S(=O)([O-])C(F)(F)F (stereo not shown) [compound 9]
[1]; time 0 h
  Relative variation of the maximum absorbance of the π→π* transitions: 0.0%
  Relative variation of the maximum absorbance of the charge transfer bands: 0.0%
[1]; time 0.25 h
  Relative variation of the maximum absorbance of the π→π* transitions: 0.0%
  Relative variation of the maximum absorbance of the charge transfer bands: 0.2%
[1]; time 0.5 h
  Relative variation of the maximum absorbance of the π→π* transitions: −0.2%
  Relative variation of the maximum absorbance of the charge transfer bands: 0.2%
[1]; time 0.75 h
  Relative variation of the maximum absorbance of the π→π* transitions: −0.3%
  Relative variation of the maximum absorbance of the charge transfer bands: 0.2%
[1]; time 1 h
  Relative variation of the maximum absorbance of the π→π* transitions: −0.3%
  Relative variation of the maximum absorbance of the charge transfer bands: 0.3%
[1]; time 2 h
  Relative variation of the maximum absorbance of the π→π* transitions: −0.3%
  Relative variation of the maximum absorbance of the charge transfer bands: 0.6%
[1]; time 3 h
  Relative variation of the maximum absorbance of the π→π* transitions: −0.1%
  Relative variation of the maximum absorbance of the charge transfer bands: 0.9%
[1]; time 4 h
  Relative variation of the maximum absorbance of the π→π* transitions: −0.1%
  Relative variation of the maximum absorbance of the charge transfer bands: 0.6%
[1]; time 5 h
  Relative variation of the maximum absorbance of the π→π* transitions: −0.3%
  Relative variation of the maximum absorbance of the charge transfer bands: 0.4%
[1]; time 6 h
  Relative variation of the maximum absorbance of the π→π* transitions: −0.2%
  Relative variation of the maximum absorbance of the charge transfer bands: 0.7%
[1]; time 24 h
  Relative variation of the maximum absorbance of the π→π* transitions: −0.1%
  Relative variation of the maximum absorbance of the charge transfer bands: 0.8%
[2]; time 0 h
  Relative variation of the maximum absorbance of the π→π* transitions: 0.0%
  Relative variation of the maximum absorbance of the charge transfer bands: 0.0%
[2]; time 0.25 h
  Relative variation of the maximum absorbance of the π→π* transitions: −0.2%
  Relative variation of the maximum absorbance of the charge transfer bands: −0.7%
[2]; time 0.5 h
  Relative variation of the maximum absorbance of the π→π* transitions: −0.3%
  Relative variation of the maximum absorbance of the charge transfer bands: −0.8%
[2]; time 0.75 h
  Relative variation of the maximum absorbance of the π→π* transitions: −0.5%
  Relative variation of the maximum absorbance of the charge transfer bands: −0.9%
[2]; time 1 h
  Relative variation of the maximum absorbance of the π→π* transitions: −0.3%
  Relative variation of the maximum absorbance of the charge transfer bands: −1.0%
[2]; time 2 h
  Relative variation of the maximum absorbance of the π→π* transitions: −0.2%
  Relative variation of the maximum absorbance of the charge transfer bands: −1.2%
[2]; time 3 h
  Relative variation of the maximum absorbance of the π→π* transitions: −0.3%
  Relative variation of the maximum absorbance of the charge transfer bands: −1.4%
[2]; time 4 h
  Relative variation of the maximum absorbance of the π→π* transitions: −0.4%
  Relative variation of the maximum absorbance of the charge transfer bands: −1.5%
[2]; time 5 h
  Relative variation of the maximum absorbance of the π→π* transitions: −0.2%
  Relative variation of the maximum absorbance of the charge transfer bands: −1.6%
[2]; time 6 h
  Relative variation of the maximum absorbance of the π→π* transitions: −0.5%
  Relative variation of the maximum absorbance of the charge transfer bands: −1.7%
[2]; time 24 h
  Relative variation of the maximum absorbance of the π→π* transitions: 4.5%
  Relative variation of the maximum absorbance of the charge transfer bands: −0.2%
[3]; Example 24
  IC50 range in words: sub-micromolar range
[3]; read-out: Cytotoxic activity expressed as IC50, Table 5, 48 h, 37° C.
  IC50: 310 nM
